# Reference: US20240209004A1, “BORIC ACID DERIVATIVE ACTING AS Beta-LACTAMASE INHIBITOR” (TUOJIE BIOTECH (SHANGHAI) CO., LTD., priority 2021, published 2024)
# Like-named read-outs stand apart in the source and are kept apart here.
# Columns and labels:
# Assay type in all cases: cell-based
# [1] = system: Escherichia coli ARLG-2829 (Urine); assay: MIC of β-lactamase inhibitors in the presence of antibiotic (Test Example 1); settings: in the presence of Cefepime (8 ug/mL)
# Description: (§1) • 1) The antibiotics cefepime and biapenem (purchased from MCE Inc.).
# (§2) The biosafety cabinet was sterilized with ultraviolet light for 30 min. Glycerol tubes were taken out of a −80° C. freezer, and streaks were gently formed in the glycerol tubes using inoculating loops. Bacteria were inoculated onto MHIIA solid plates. The plates were incubated overnight in a 37° C. incubator.
# (§3) 30 μL of compound stock solution was added to column 1 of a 96-well v-bottom plate, and DMSO was added to columns 2-10. Subsequently, 15 μL was transferred from column 1 to column 2 using a pipette and well mixed gently, and then 15 μL of solution was transferred from column 2 to column 3: the serial dilution process proceeded to column 10 (200×β-lactamase inhibitor working solutions were prepared). The two antibiotics were diluted with corresponding solvents to form 1.6 mg/mL solutions.
# (§4) 1 μL of 200×B-lactamase inhibitor solution and 1 μL of 1.6 mg/mL antibiotic were added to a new 96-well round-bottom plate. The plate that had been incubated overnight was taken out of the incubator, and several monoclones were picked into normal saline using an inoculating loop. The bacterial solution was adjusted to a concentration of about 1.0×10^8CFU/mL and diluted 200-fold with medium, and 198 μL of the resulting bacterial solution was added to the test plate. The test plate was incubated in a 37° C.incubator for 18-24 h. The 96-well plate that had been incubated for 20 h was taken out of the incubator. The concentration that prevented visible bacterial growth was defined as the minimum inhibitory concentration.
# [2] = system: Klebsiella pneumoniae ATCC BAA-1705; assay: as above
# Description: as §1, §2, §3, §4
# [3] = system: Klebsiella pneumoniae ATCC BAA-2472; assay: as above
# Description: as §1, §2, §3, §4
# [4] = system: cefepime-resistant Acinetobacter baumannii; assay: MIC in combination with cefepime for drug-resistant bacteria (Test Example 2); settings: Acinetobacter baumannii, with CPM 8 μg/mL, read-out: concentration for achieving a bacteriostatic effect where the CPM MIC is fixed at 8 μg/mL
# Description: as §2
# as §3, with “3;” for “3:”, “antibiotic was” for “two antibiotics were”, “with a” for “with”, “solvent” for “solvents”, “form a” for “form”, “solution.” for “solutions.”
# [5] = system: cefepime-resistant Escherichia coli; assay: as above; settings: for MIC: Escherichia coli, with CPM 8 μg/mL, read-out: concentration for achieving a bacteriostatic effect where the CPM MIC is fixed at 8 μg/mL
# Description: as §2
# as §3, with “3;” for “3:”, “antibiotic was” for “two antibiotics were”, “with a” for “with”, “solvent” for “solvents”, “form a” for “form”, “solution.” for “solutions.”
# [6] = system: cefepime-resistant Klebsiella pneumoniae; assay: as above; settings: for MIC: Klebsiella pneumoniae, with CPM 8 μg/mL, read-out: concentration for achieving a bacteriostatic effect where the CPM MIC is fixed at 8 μg/mL
# Description: as §2
# as §3, with “3;” for “3:”, “antibiotic was” for “two antibiotics were”, “with a” for “with”, “solvent” for “solvents”, “form a” for “form”, “solution.” for “solutions.”
# [7] = system: cefepime-resistant Pseudomonas aeruginosa; assay: as above; settings: read-out: concentration for achieving a bacteriostatic effect where the CPM MIC is fixed at 8 μg/mL
# Description: as §2
# as §3, with “3;” for “3:”, “antibiotic was” for “two antibiotics were”, “with a” for “with”, “solvent” for “solvents”, “form a” for “form”, “solution.” for “solutions.”
# [8] = system: cefepime-resistant Klebsiella pneumoniae expressing different types of β-lactamases; assay: microbe, parasite or virus in culture; settings: for MIC: Klebsiella pneumoniae; for MIC, Cefepime + compound (8 ug/ml): inhibitor at 8 ug/ml
# Description: as §2
# as §3, with “antibiotic was” for “two antibiotics were”, “with a” for “with”, “solvent” for “solvents”, “form a” for “form”, “solution.” for “solutions.”
# [9] = in the presence of Biapenem (8 ug/mL)
# [10] = in the presence of Cefepime (8 ug/mL)
# [11] = summary in words of Test Example 2
structure (smiles),measurement,setting,value
O=C(O)c1c(F)ccc2c1OB(O)[C@@H]1C[C@H]21 [QPX-7728],Minimum inhibitory concentration,[1],1 µg/mL
same,Minimum inhibitory concentration,[2]; [9],≤0.03125 µg/mL
same,Minimum inhibitory concentration,[2]; [10],0.25 µg/mL
same,Minimum inhibitory concentration,[3]; [9],8 µg/mL
same,Minimum inhibitory concentration,[3]; [10],16 µg/mL
same,MIC,[4]; strain FDA-CDC AR-BANK#0033,> 16 µg/mL
same,MIC,[4]; strain FDA-CDC AR-BANK#0035,> 16 µg/mL
same,MIC,[4]; strain FDA-CDC AR-BANK#0078,16 µg/mL
same,MIC,[5]; strain FDA-CDC AR-BANK#0055,0.5 µg/mL
same,MIC,[5]; strain FDA-CDC AR-BANK#0114,≤ 0.0156 µg/mL
same,MIC,[5]; strain FDA-CDC AR-BANK#0370,0.125 µg/mL
same,MIC,[5]; strain FDA-CDC AR-BANK#0371,≤ 0.0156 µg/mL
same,restoring to cefepime antibacterial activity against cefepime-resistant Escherichia coli,[5]; [11],significantly restore to cefepime antibacterial activity
same,MIC,[6]; strain FDA-CDC AR-BANK#0003,0.0312 µg/mL
same,MIC,[6]; strain FDA-CDC AR-BANK#0076,0.25 µg/mL
same,MIC,[6]; strain FDA-CDC AR-BANK#0080,0.5 µg/mL
same,MIC,[6]; strain FDA-CDC AR-BANK#0126,≤ 0.0156 µg/mL
same,MIC,[6]; strain FDA-CDC AR-BANK#0158,0.5 µg/mL
same,restoring to cefepime antibacterial activity against cefepime-resistant Klebsiella pneumoniae,[6]; [11],significantly restore to cefepime antibacterial activity
same,MIC,"[7]; strain FDA-CDC AR-BANK#0246, with CPM 8 μg/mL",> 16 µg/mL
same,MIC,"[7]; strain FDA-CDC AR-BANK#0439, with CPM 8 μg/mL",> 16 µg/mL
same,MIC,"[7]; strain FDA-CDC AR-BANK#0441, with CPM 8 μg/mL",2 µg/mL
same,MIC,"[7]; strain FDA-CDC AR-BANK#0444, with CPM 8 μg/mL",4 µg/mL
same,MIC,"[8]; ATCCBAA1705, read-out: MIC, single substance (1-1-Na, QPX7728, CPM), strain ATCC BAA-1705, KPC-2, TEM, SHV, Class A",32 µg/mL
same,MIC,"[8]; ATCCBAA1898, read-out: MIC, single substance (1-1-Na, QPX7728, CPM), strain ATCC BAA-1898, KPC-2, Class A",32 µg/mL
same,MIC,"[8]; ATCCBAA1899, read-out: MIC, single substance (1-1-Na, QPX7728, CPM), strain ATCC BAA-1899, KPC-2, Class A",32 µg/mL
same,MIC,"[8]; ATCCBAA2343, read-out: MIC, single substance (1-1-Na, QPX7728, CPM), strain ATCC BAA-2343, KPC, Class A",32 µg/mL
same,MIC,"[8]; ATCCBAA2470, read-out: MIC, single substance (1-1-Na, QPX7728, CPM), strain ATCC BAA-2470, NDM-1, Class B",16 µg/mL
same,MIC,"[8]; read-out: MIC, single substance (1-1-Na, QPX7728, CPM), strain ARLG-1127 (Urine), KPC, KPC-3, TEM, TEM-1, Class A",64 µg/mL
same,MIC,"[8]; read-out: MIC, single substance (1-1-Na, QPX7728, CPM), strain ARLG-1195, CTM-1 group, SHV, NDM, Class A, B",32 µg/mL
same,MIC,"[8]; read-out: MIC, single substance (1-1-Na, QPX7728, CPM), strain ARLG-1196, CTM-1 group, SHV, NDM, TEM, Class A, B",32 µg/mL
same,"MIC, Cefepime + compound (8 ug/ml)","[8]; strain ARLG-1127 (Urine), KPC, KPC-3, TEM, TEM-1, Class A",≤0.125 µg/mL
same,"MIC, Cefepime + compound (8 ug/ml)","[8]; strain ARLG-1195, CTM-1 group, SHV, NDM, Class A, B",≤0.125 µg/mL
same,"MIC, Cefepime + compound (8 ug/ml)","[8]; strain ARLG-1196, CTM-1 group, SHV, NDM, TEM, Class A, B",≤0.125 µg/mL
same,"MIC, Cefepime + compound (8 ug/ml)","[8]; strain ATCC BAA-1705, KPC-2, TEM, SHV, Class A",≤0.125 µg/mL
same,"MIC, Cefepime + compound (8 ug/ml)","[8]; strain ATCC BAA-1898, KPC-2, Class A",<0.125 µg/mL
same,"MIC, Cefepime + compound (8 ug/ml)","[8]; strain ATCC BAA-1899, KPC-2, Class A",<0.125 µg/mL
same,"MIC, Cefepime + compound (8 ug/ml)","[8]; strain ATCC BAA-2343, KPC, Class A",≤0.125 µg/mL
same,"MIC, Cefepime + compound (8 ug/ml)","[8]; strain ATCC BAA-2470, NDM-1, Class B",≤0.125 µg/mL
same,restore to cefepime antibacterial activity against cefepime-resistant Klebsiella pneumoniae,[8]; summary in words of Test Example 3 (sentence runs over b277-b278),significantly
